Active and inactive are the calls of the source. No cut-off for these calls is given here.
Legend:
[1] = Induction of thermotropic behavior changes in dimyristoylphosphatidylcholine multilamellar vesicles assessed as changes in pre-transition peak at 0.015 to 0.15 molar fraction by differential scanning calorimetry
[2] = Induction of thermotropic behavior changes in dimyristoylphosphatidylcholine multilamellar vesicles assessed as changes in main transition peak at 0.015 to 0.15 molar fraction by differential scanning calorimetry
[3] = Induction of thermotropic behavior changes in dimyristoylphosphatidylcholine multilamellar vesicles assessed as reduction in transition temperature at 0.015 to 0.15 molar fraction by differential scanning calorimetry
[4] = Induction of thermotropic behavior changes in dimyristoylphosphatidylcholine multilamellar vesicles assessed as reduction in enthalpy of phase transition at 0.015 to 0.15 molar fraction by differential scanning calorimetry
[5] = Induction of thermotropic behavior changes in dimyristoylphosphatidylcholine multilamellar vesicles assessed as reduction in cooperativity among phospholipid molecules by measuring peak width at half height at 0.015 to 0.15 molar fraction by differential scanning calorimetry
[6] = Induction of thermotropic behavior changes in dimyristoylphosphatidylcholine multilamellar vesicles assessed as reduction in enthalpy of phase transition at 0.015 molar fraction by differential scanning calorimetry; set-up: scale not given: the % may be the effect or the level left
[7] = Induction of thermotropic behavior changes in dimyristoylphosphatidylcholine multilamellar vesicles assessed as reduction in enthalpy of phase transition at 0.03 molar fraction by differential scanning calorimetry; set-up: scale not given: the % may be the effect or the level left
[8] = Induction of thermotropic behavior changes in dimyristoylphosphatidylcholine multilamellar vesicles assessed as reduction in enthalpy of phase transition at 0.045 molar fraction by differential scanning calorimetry; set-up: scale not given: the % may be the effect or the level left
[9] = Induction of thermotropic behavior changes in dimyristoylphosphatidylcholine multilamellar vesicles assessed as reduction in enthalpy of phase transition at 0.06 molar fraction by differential scanning calorimetry; set-up: scale not given: the % may be the effect or the level left
[10] = Induction of thermotropic behavior changes in dimyristoylphosphatidylcholine multilamellar vesicles assessed as reduction in enthalpy of phase transition at 0.09 molar fraction by differential scanning calorimetry; set-up: scale not given: the % may be the effect or the level left
Lipid bilayer [11] = assay: Induction of thermotropic behavior changes in dimyristoylphosphatidylcholine multilamellar vesicles assessed as reduction in enthalpy of phase transition at 0.12 molar fraction by differential scanning calorimetry; set-up: scale not given: the % may be the effect or the level left
[12] = Induction of thermotropic behavior changes in dimyristoylphosphatidylcholine multilamellar vesicles assessed as reduction in enthalpy of phase transition at 0.15 molar fraction by differential scanning calorimetry; set-up: scale not given: the % may be the effect or the level left
Lipid bilayer [13] = assay: Binding affinity to external surface of dimyristoylphosphatidylcholine multilamellar vesicles at 0.09 molar fraction by differential scanning calorimetry
[14] = Drug absorption in dimyristoylphosphatidylcholine multilamellar vesicles at 0.09 molar fraction by differential scanning calorimetry; type: physicochemical
[15] = Drug absorption in dimyristoylphosphatidylcholine multilamellar vesicles at 0.045 molar fraction using lipophilic medium as carrier by differential scanning calorimetry; type: physicochemical; details: octanol/water
[16] = Pro-oxidant activity in lipophilic medium containing linoleic acid by crocin bleaching assay; type: functional
[17] = Pro-oxidant activity in hydrophilic medium by crocin bleaching assay; type: functional
[18] = Antioxidant activity assessed as inhibition of AAPH-induced crocin oxidation in hydrophilic medium at 5 to 500 uM by crocin bleaching assay; type: physicochemical
[19] = Antioxidant activity assessed as inhibition of AAPH-induced crocin oxidation at 5 to 500 uM in lipophilic medium containing linoleic acid by crocin bleaching assay; type: physicochemical

| Activity [1] | Activity [2] | Activity [3] | Activity [4] | Activity [5] | Activity [6] [%] | Activity [7] [%] | Activity [8] [%] | Activity [9] [%] | Activity [10] [%] | Activity (Lipid bilayer [11]) [%] | Activity [12] [%] | Activity (Lipid bilayer [13]) | Drug uptake [14] | Drug uptake [15] | Activity [18] | Activity [19] | Structure (SMILES) | Activity [16] | Activity [17] |
| --- | --- | --- | --- | --- | --- | --- | --- | --- | --- | --- | --- | --- | --- | --- | --- | --- | --- | --- | --- |
| Active | Active | Dose-dependent effect | Dose-dependent effect | Dose-dependent effect | 95 | 96 | 98.3 | 91.7 | 79.5 | 71.2 | 74.1 | Active | Active | Active | Active | Active | CCCCCC/C(C=O)=C\c1ccccc1 | inactive | inactive |
| – | – | – | – | – | – | – | – | – | – | – | – | – | – | – | Active | Active | Cc1c(C)c2c(c(C)c1O)CCC(C)(C(=O)O)O2 (stereo unspecified) [TROLOX] | – | – |

Reference: ChEMBL document CHEMBL3580544, “Interaction of α-Hexylcinnamaldehyde with a Biomembrane Model: A Possible MDR Reversal Mechanism” (J Nat Prod, 2015)
